Test results published in publication PMC11571207, “Stereorandomized Oncocins with Preserved Ribosome Binding and Antibacterial Activity” (Journal of Medicinal Chemistry, 2024).
Like-named read-outs stand apart in the source and are kept apart here. No end group written: not given here.

Columns and labels:
E. coli W3110 [1] = assay: Time-killing kinetic assay, E. coli; assay type: cell-based, Escherichia coli; conditions: 8× MIC, full MHB pH 7.4, 0-6 h, n = 6
Description: (§1) Time-Killing Kinetic Assay
(§2) Single colonies of E. coli W3110 and K. pneumoniae NCTC418 were picked and grown overnight with shaking (180 rpm) in LB (Sigma-Aldrich, Buchs, Switzerland) medium 5 mL overnight at 37 °C. The overnight bacterial cultures were diluted to OD600 = 0.002 (2 × 10^6 CFU/mL) in fresh MHB medium. Stock solutions of AMPs in sterilized milliQ water were prepared in 1 mg/mL and were diluted to two times more than required concentration in fresh MHB (Sigma- Aldrich, Buchs, Switzerland) medium at pH 7.4. 100 μL of prepared bacteria solution in MHB and 100 μL of samples in MHB were mixed in a 96-well microtiter plate (TPP, untreated, Corning Incorporated, Kennebunk, USA). Untreated bacteria at 1 × 10^6 CFU/mL were used as a growth control. 96-well microtiter plates were incubated in 37 °C with shaking (180 rpm). Surviving bacteria were quantified at 0, 0.5, 1, 2, 4 and 6 h by plating 10 -fold dilutions of the sample in sterilized normal saline on LB agar plates. LB agar plates were incubated at 37 °C for 10 h, and the number of individual colonies was counted at each time point. The assay was performed in triplicate in a biosafety level 2 lab. […]

K. pneumoniae NCTC418 = assay: Time-killing kinetic assay, K. pneumoniae; assay type: cell-based, Klebsiella pneumoniae; conditions: 8× MIC, full MHB pH 7.4, 0-6 h, n = 6
Description: as §1, §2

[2] = test system: E. coli ribosome, U2506 of the 23S rRNA; assay: Ribosome footprinting (CMCT modification of U2506); assay type: binding; conditions: 1 μM peptide, 10.5 μM CMCT, purified E. coli ribosomes (5 pmol), 25 °C; primer extension, sequencing gel
Description: A 5 mL culture of E. coli MG1655 (WT-cells) was grown in LB overnight (220 rpm, 37 °C). One liter LB medium was inoculated, and bacteria were grown to OD = 0.6 (220 rpm. 37 °C); cells were centrifuged in centrifuge bottles, and the pellet was resuspended in ice-cold water and transferred in 50 mL falcon tubes. Falcon tubes were centrifuged, the supernatant was removed, the pellet was resuspended in 15 mL polysome buffer (TRIS/HCl pH 7.5 20 mM, NH4Cl 100 mM, MgCl2 10 mM, EDTA 0.5 mM, β-mercaptoethanol 60 mM), frozen dropwise in N2 (l), and stored at −80 °C. The cells were ground in CryoMil with the standard program (1 min precooling, 2 min grinding 5/s, 2 min cooling, 2 min grinding 5/s). The powder was transferred in 50 mL falcon tubes containing N2 (l) and stored at −80 °C. The lysates were thawed with a water bath (30 °C), put on ice, transferred to precooled Eppendorf tubes, and centrifuged (5000 g, 2 min, 4 °C). The clear lysate was transferred to new precooled tubes, centrifuged (14 000 g, 10 min, 4 °C), and the supernatant was transferred to new precooled tubes. 300 mL of clear lysate was loaded on a 10–50% sucrose gradient in CMCT buffer (K-borate buffer pH 8 80 mM, MgCl2 25 mM, NH4Cl 100 mM) and ultracentrifuged (3 h, 234 050 g, 4 °C). The fractions containing monosomes and polysomes were collected and ultracentrifuged overnight (16 h, 260 800 g, 4 °C). The supernatant was discarded, and the pellet was washed with ice-cold CMCT buffer. The ribosomes were resuspended in 100 μL CMCT buffer with a mini magnetic stirring bar and stored on ice. The concentration of ribosomes was measured in 1/200 dilution in water.
Ribosomes (5 pmol) were mixed with 8 μL of CMCT buffer, the compound of interest 1 μM, and water to a final volume of 20 μL in a precooled tube and incubated at 25 °C for 10 min. 20 μL of CMCT (10.5 μM) in water was added and incubated at 25 °C for 30 min. The reaction was stopped with 160 μL of EDTA (30 μM), and the samples were stored on ice.
160 μL portion of RNA resuspension buffer and 40 μL of 10% SDS were added, and the samples were vigorously resuspended. 400 μL of prewarmed acid phenol was added, and the samples were incubated on a thermomixer (5 min, 1200 rpm, 65 °C). The samples were put on ice for 5 min and centrifuged (5 min, 14 000 g, RT). The watery phase was transferred to a new precooled tube, 400 μL of phenol–chloroform–isoamyl alcohol (4 °C) was added, and the samples were mixed (5 min, 1200 rpm, RT). The samples were centrifuged again (5 min, 14 000g, RT), and the watery phase was transferred to another precooled tube. 34 μL of 3 M NaOAc pH 5.5, 0.8 μL of Glycoblue and 400 μL of isopropanol were added, and the samples were incubated for 3 h at −80 °C. The samples were then centrifuged (40 min, 21 000g, 4 °C), and the pellet was washed with ice-cold 70% EtOH. The residual liquid was removed, and the samples were dried (5 min, 37 °C). The samples were resuspended in 20 μL of water, the concentration was measured, and the samples were −80 °C.
Primers designed to probe the positions 2506 of the 23S rRNA (5-[sequence]-3′) were labeled with radioactive phosphate (γ^32 P-ATP). […] To prepare primers for one reaction, 1 μL of primer (0.3 μM), 0.4 μL of 5× PNK-buffer, 0.25 μL of water, 0.2 μL of γ^32 P-ATP, and 0.15 μL of T4 PNK were mixed and incubated at 37 °C.

[3] = test system: P. aeruginosa PA14 4.18 (pmrB); conditions: for MIC P. aeruginosa PA14 4.18 (pmrB), 12.5% MHB / MIC P. aeruginosa PA14 4.18 (pmrB), full MHB: polymyxin B resistant strain, 16–20 h at 37 °C; for MIC P. aeruginosa PA14 4.18 (pmrB), 12.5% MHB: 12.5% MHB pH 7.4; for MIC P. aeruginosa PA14 4.18 (pmrB), full MHB: full MHB pH 7.4; for MIC P. aeruginosa PA14 4.18: supplement CSV
S. aureus COL (MRSA) = assay: microbe, parasite or virus in culture; conditions: for MIC S. aureus, 12.5% MHB / MIC S. aureus, Full MHB: S. aureus COL (MRSA), 16–20 h at 37 °C; for MIC S. aureus, 12.5% MHB: 12.5% Müller–Hinton medium; for MIC S. aureus, Full MHB: full Müller–Hinton medium; for MIC S. aureus COL (MRSA): supplement CSV
Summary of the method: (§3)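 Read-out was visible growth after MTT addition, the MIC being the lowest inhibitory peptide concentration. Bacteria grown to log phase in LB were exposed in MH medium to peptide from 64 μg/mL in twofold dilutions for 15-18h at 37°C.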

K. pneumoniae NCTC 418 = assay: microbe, parasite or virus in culture; conditions: for MIC K. pneumoniae, 12.5% MHB / MIC K. pneumoniae, Full MHB: K. pneumoniae NCTC 418, 16–20 h at 37 °C; for MIC K. pneumoniae, 12.5% MHB: 12.5% Müller–Hinton medium; for MIC K. pneumoniae, Full MHB: full Müller–Hinton medium; for MIC K. pneumoniae NCTC418: supplement CSV
Summary of the method: as §3

P. aeruginosa PAO1 = assay: microbe, parasite or virus in culture; conditions: for MIC P. aeruginosa, 12.5% MHB / MIC P. aeruginosa, Full MHB: P. aeruginosa PAO1, 16–20 h at 37 °C; for MIC P. aeruginosa, 12.5% MHB: 12.5% Müller–Hinton medium; for MIC P. aeruginosa, Full MHB: full Müller–Hinton medium; for MIC P. aeruginosa PAO1: supplement CSV
Summary of the method: as §3

A. baumannii ATCC19606 = assay: microbe, parasite or virus in culture; conditions: for MIC A. baumannii, 12.5% MHB / MIC A. baumannii, Full MHB: A. baumannii ATCC19606, 16–20 h at 37 °C; for MIC A. baumannii, 12.5% MHB: 12.5% Müller–Hinton medium; for MIC A. baumannii, Full MHB: full Müller–Hinton medium; for MIC A. baumannii ATCC19606: supplement CSV
Summary of the method: as §3

E. coli W3110 [4] = assay: microbe, parasite or virus in culture; conditions: for MIC E. coli, 12.5% MHB / MIC E. coli, Full MHB: E. coli W3110, 16–20 h at 37 °C, broth microdilution; for MIC E. coli, 12.5% MHB: 12.5% Müller–Hinton medium; for MIC E. coli, Full MHB: full Müller–Hinton medium; for MIC E. coli W3110: supplement CSV
Summary of the method: as §3

Row | Sequence | Killing profile against E. coli (E. coli W3110 [1]) | Killing profile against K. pneumoniae (K. pneumoniae NCTC418) | Protection of U2506 of 23S rRNA from CMCT modification (band at C2507) [2] | MIC P. aeruginosa PA14 4.18 (pmrB), 12.5% MHB [3] [µg/mL] | MIC P. aeruginosa PA14 4.18 (pmrB), full MHB [3] [µg/mL] | MIC P. aeruginosa PA14 4.18 ([3]; 12.5% MH pH 7.4) [µg/mL] | MIC P. aeruginosa PA14 4.18 ([3]; full MH pH 7.4) [µg/mL] | MIC S. aureus, 12.5% MHB (S. aureus COL (MRSA)) [µg/mL] | MIC S. aureus, Full MHB (S. aureus COL (MRSA)) [µg/mL] | MIC S. aureus COL (MRSA) (S. aureus COL (MRSA); 12.5% MH pH 7.4) [µg/mL] | MIC S. aureus COL (MRSA) (S. aureus COL (MRSA); full MH pH 7.4) [µg/mL] | MIC K. pneumoniae, 12.5% MHB (K. pneumoniae NCTC 418) | MIC K. pneumoniae, Full MHB (K. pneumoniae NCTC 418) | MIC K. pneumoniae NCTC418 (K. pneumoniae NCTC 418; 12.5% MH pH 7.4) [µg/mL] | MIC K. pneumoniae NCTC418 (K. pneumoniae NCTC 418; full MH pH 7.4) [µg/mL] | MIC P. aeruginosa, 12.5% MHB (P. aeruginosa PAO1) [µg/mL] | MIC P. aeruginosa, Full MHB (P. aeruginosa PAO1) [µg/mL] | MIC P. aeruginosa PAO1 (P. aeruginosa PAO1; 12.5% MH pH 7.4) [µg/mL] | MIC P. aeruginosa PAO1 (P. aeruginosa PAO1; full MH pH 7.4) [µg/mL] | MIC A. baumannii, 12.5% MHB (A. baumannii ATCC19606) [µg/mL] | also measured
1 | VDKPPYLPRPRPPRRIYNR [sr9Cterm-Onc] (VDKPPYLPRPRPPRRIYNR-NH2; also: residues 11-19 stereorandomized (1:1 L/D mixture)) | comparable kinetics to L-Onc | comparable kinetics to L-Onc | protected from CMCT modification | 8 | 64 | 8 | 64 | 32 | > 64 | 32 | >64 | 4 / 4 μg/mL | 4 / 4 μg/mL | 4 | 4 | 8 | 64 | 8 | 64 | 4 | MIC A. baumannii, Full MHB (A. baumannii ATCC19606): 32 µg/mL; MIC A. baumannii ATCC19606 (A. baumannii ATCC19606; 12.5% MH pH 7.4): 4 µg/mL; MIC A. baumannii ATCC19606 (A. baumannii ATCC19606; full MH pH 7.4): 32 µg/mL; MIC E. coli, 12.5% MHB (E. coli W3110 [4]): 4 µg/mL; MIC E. coli, Full MHB (E. coli W3110 [4]): 8 µg/mL; MIC E. coli W3110 (E. coli W3110 [4]; 12.5% MH pH 7.4): 4 µg/mL; MIC E. coli W3110 (E. coli W3110 [4]; full MH pH 7.4): 8 µg/mL
2 | VDKPPYLPRPRPPRRIYNR [sr8Cterm-Onc] (VDKPPYLPRPRPPRRIYNR-NH2; also: residues 12-19 stereorandomized (1:1 L/D mixture)) | comparable kinetics to L-Onc | comparable kinetics to L-Onc | protected from CMCT modification | 8 | 64 | 8 | 64 | > 16 | > 64 | >16 | >64 | 2 µg/mL | 4 µg/mL | 2 | 4 | 8 | 64 | 8 | 64 | 4 | MIC A. baumannii, Full MHB (A. baumannii ATCC19606): 32 µg/mL; MIC A. baumannii ATCC19606 (A. baumannii ATCC19606; 12.5% MH pH 7.4): 4 µg/mL; MIC A. baumannii ATCC19606 (A. baumannii ATCC19606; full MH pH 7.4): 32 µg/mL; MIC E. coli, 12.5% MHB (E. coli W3110 [4]): 4 µg/mL; MIC E. coli, Full MHB (E. coli W3110 [4]): 8 µg/mL; MIC E. coli W3110 (E. coli W3110 [4]; 12.5% MH pH 7.4): 4 µg/mL; MIC E. coli W3110 (E. coli W3110 [4]; full MH pH 7.4): 8 µg/mL
